Consider ten compounds from PubChem BioAssay (NCI).

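Each compound was tested at five concentrations against cells in 96-well plates for 48 hours. The concentration for full growth arrest is given as TGI.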

Holding throughout (assay): growth of human tumour cells (NCI), 48 h
Assay [1] has as its system ACHN renal.
Assay [2] concerns COLO 205 colon.
The subject of assay [3] is EKVX NSCLC.
The test system of assay [4] is K-562 leukemia.
Assay [5] deals with KM12 colon.
For assay [6], the system named is MCF7 breast.
Assay [7] concerns MDA-MB-435.
The test system of assay [8] is NCI-H226 lung.
In assay [9] the test system is NCI-H522 lung.
Assay [10] relates to OVCAR-3 ovarian.
Assay [11] relates to OVCAR-4 ovarian.
In assay [12] the test system is SF-539 CNS.
For assay [13], the system named is SNB-19 CNS.
In assay [14] the test system is T-47D breast.
Assay [15] has as its system UO-31 renal.

As for `Nc1nc(Cl)cc(NCC2(CO)CC=CC2)n1`, the TGI in assay [1], in assay [2], in assay [3], in assay [4], in assay [5] and in assay [6] was > 100 µM in each case. The TGI in assay [7], in assay [8], in [9], in assay [10], in [11] and in [12] was > 100 µM throughout. The TGI in assay [13], in assay [14] and in [15] was > 100 µM throughout.

Turning to `COC(OC)[C@@H]1OC[C@H](n2ccc(=O)[nH]c2=O)[C@H]1O`, the TGI in assay [1], in assay [2], in assay [3], in assay [4], in [5] and in [6] was > 100 µM each time. The TGI in assay [7], in assay [8], in [10], in [11], in [12] and in assay [13] was > 100 µM in each case. Moreover, the TGI in assay [14] and in [15] was > 100 µM each time.

As for `CC(O)/C=C/C1OC(=O)CC1Nc1ccc(C=O)cc1` (configuration not stated), the TGI in assay [1], in assay [2], in [3], in [4], in [5] and in assay [6] was > 100 µM each time. Also, the TGI in assay [7], in assay [8], in [10], in assay [11], in assay [12] and in assay [13] was > 100 µM in each case. Besides, the TGI in assay [14] and in [15] was > 100 µM each time.

In the case of `CNc1cc(Cl)ccc1C(=O)N1CCC[C@H]1CO`, the TGI in assay [1], in assay [2], in assay [3], in assay [5], in assay [6] and in assay [7] was > 100 µM each time. Further, the TGI in [8], in assay [9], in [11], in [12], in assay [13] and in assay [14] was > 100 µM each time. Moreover, the TGI in assay [15] was > 100 µM.

Take `N#CCc1nc(-c2cc3ccc(O)cc3oc2=O)cs1`: the TGI in assay [1], in assay [2], in assay [3], in [4], in [5] and in [6] was > 100 µM each time. Also, the TGI in assay [7], in assay [8], in assay [9], in [11], in assay [12] and in [13] was > 100 µM in each case. For the same compound, the TGI in assay [14] and in assay [15] was > 100 µM throughout.

For `Oc1cc(F)cc2cccnc12`, the TGI in assay [1] was > 92.1 µM; in [2] it was > 53.4 µM; in assay [3], > 100 µM; in assay [4], 1.15 µM; in [5] it was > 100 µM; in [6] it was > 39.7 µM. Besides, the TGI is > 100 µM in assay [7]; > 100 µM in assay [8]; 3.16 µM in [9]; > 100 µM in assay [11]; 30 µM in assay [12]; > 100 µM in [13]. Besides, the TGI in assay [14] is > 74.7 µM; in assay [15], > 100 µM.

On to `COc1ccc(-c2n[nH]c3nc4ccccc4n3c2=O)cc1`, for which the TGI in assay [1], in assay [2], in assay [3], in assay [5], in assay [6] and in assay [7] was > 100 µM in each case. Also, the TGI in assay [8], in assay [9], in assay [11], in assay [12], in assay [13] and in assay [14] was > 100 µM each time. Besides, in [15], the TGI is > 100 µM.

As to `CNC(=O)OCC1=C(COC(=O)NC)CN(c2ccc(OC)cc2)C1`, the TGI in [1], in assay [2], in [3], in assay [4], in assay [5] and in [6] was > 100 µM in each case. Moreover, the TGI in assay [7] was > 100 µM; in assay [8], 41.1 µM; in [10], > 100 µM; in assay [11] it was > 100 µM; in assay [12], > 100 µM; in assay [13] it was > 100 µM. The TGI in assay [14] and in assay [15] was > 100 µM throughout.

`CC(=S)NC=C(C(N)=O)C(N)=O`: the TGI in assay [1], in assay [2], in assay [3], in assay [4], in [5] and in assay [6] was > 100 µM each time. The TGI in assay [7], in assay [8], in assay [9], in [10], in assay [12] and in assay [14] was > 100 µM throughout.

In the case of `OCCCN=C1N=C(Cl)/C(=C\c2ccccc2)N1`, the TGI in assay [1], in assay [2], in [3], in assay [4], in assay [5] and in assay [6] was > 100 µM each time. The TGI in [7], in [8], in assay [9], in assay [11], in [12] and in [13] was > 100 µM each time. The TGI in [14] and in assay [15] was > 100 µM in each case.
